A short description of data set [1]: Cmax in cynomolgus monkey at 2 mg/kg, po. The class given is ADME, organism-based, Macaca fascicularis. On the set-up: route oral, dose 2 mg/kg. The following applies: in vivo.
Data set [2] is described as follows: Clearance in BALB/c mouse at 2 mg/kg, iv. Format: ADME, organism-based. The following applies: in vivo.
Data set [3] in a line: Total AUC in cynomolgus monkey at 1 mg/kg, iv. The following applies: in vivo. Format: ADME, organism-based, Macaca fascicularis. Also on record: time AUCmax, route intravenous, dose 1 mg/kg.
The nature of data set [4]: Oral bioavailability in rat at 4 mg/kg. The class given is ADME, organism-based. The following applies: in vivo.
Data set [5] concerns the target T1, Nuclear receptor ROR-gamma (Mus musculus, UniProt P51450).
T1 sequence (P51450 whole entry): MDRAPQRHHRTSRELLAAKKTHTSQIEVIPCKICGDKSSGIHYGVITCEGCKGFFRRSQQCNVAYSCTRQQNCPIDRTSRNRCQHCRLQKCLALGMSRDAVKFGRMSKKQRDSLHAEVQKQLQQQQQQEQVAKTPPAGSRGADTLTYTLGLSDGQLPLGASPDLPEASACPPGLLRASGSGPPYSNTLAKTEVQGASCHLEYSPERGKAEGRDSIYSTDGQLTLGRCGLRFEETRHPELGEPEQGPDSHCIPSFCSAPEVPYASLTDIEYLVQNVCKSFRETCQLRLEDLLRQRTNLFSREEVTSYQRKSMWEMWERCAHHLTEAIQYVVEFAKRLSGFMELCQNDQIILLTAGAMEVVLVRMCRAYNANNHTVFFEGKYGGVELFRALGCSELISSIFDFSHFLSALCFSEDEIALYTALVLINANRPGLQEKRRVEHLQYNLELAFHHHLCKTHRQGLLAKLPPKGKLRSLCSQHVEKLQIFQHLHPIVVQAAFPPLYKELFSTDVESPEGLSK
Kind of data set: Inverse agonist activity at RORgammat in mouse Th17 cells. Format: cell-based.

Data set [6] in a line: Cmax in dog at 2 mg/kg, po. The following applies: in vivo. The class given is ADME, organism-based, Canis lupus familiaris. Also on record: route oral, dose 2 mg/kg.
The nature of data set [7]: Oral bioavailability in BALB/c mouse at 4 mg/kg. The class given is ADME, organism-based. The following applies: in vivo.
The nature of data set [8]: Half life in cynomolgus monkey at 1 mg/kg, iv. The following applies: in vivo. The class given is ADME, organism-based, Macaca fascicularis.
A short description of data set [9]: Total AUC in cynomolgus monkey at 2 mg/kg, po. Format: ADME, organism-based, Macaca fascicularis. On the set-up: route oral, time AUCmax, dose 2 mg/kg. The following applies: in vivo.
A short description of data set [10]: Total AUC in BALB/c mouse at 4 mg/kg, po. The following applies: in vivo. The class given is ADME, organism-based. Also on record: time AUCmax, route oral, dose 4 mg/kg.
The target of data set [11] is Cytochrome P450 2C19 (Homo sapiens, UniProt P33261). Kind of data set: Inhibition of recombinant CYP2C19 (unknown origin). The class given is ADME.
Sequence of Cytochrome P450 2C19 (P33261 whole entry): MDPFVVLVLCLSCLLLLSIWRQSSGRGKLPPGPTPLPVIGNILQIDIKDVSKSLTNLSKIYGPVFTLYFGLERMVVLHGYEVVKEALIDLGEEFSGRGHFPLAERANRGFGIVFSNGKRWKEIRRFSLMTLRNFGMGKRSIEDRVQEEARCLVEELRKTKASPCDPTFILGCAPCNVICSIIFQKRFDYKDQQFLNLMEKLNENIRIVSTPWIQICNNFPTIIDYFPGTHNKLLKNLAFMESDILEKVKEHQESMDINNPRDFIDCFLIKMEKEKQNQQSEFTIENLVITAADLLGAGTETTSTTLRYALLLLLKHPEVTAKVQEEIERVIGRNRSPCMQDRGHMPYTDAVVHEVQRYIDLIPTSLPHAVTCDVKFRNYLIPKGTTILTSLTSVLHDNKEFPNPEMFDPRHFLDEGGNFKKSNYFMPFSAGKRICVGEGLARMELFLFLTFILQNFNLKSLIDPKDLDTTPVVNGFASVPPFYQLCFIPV
The target in data set [12] is T2, Nuclear receptor ROR-alpha (Homo sapiens, UniProt P35398).
T2 sequence (P35398 whole entry): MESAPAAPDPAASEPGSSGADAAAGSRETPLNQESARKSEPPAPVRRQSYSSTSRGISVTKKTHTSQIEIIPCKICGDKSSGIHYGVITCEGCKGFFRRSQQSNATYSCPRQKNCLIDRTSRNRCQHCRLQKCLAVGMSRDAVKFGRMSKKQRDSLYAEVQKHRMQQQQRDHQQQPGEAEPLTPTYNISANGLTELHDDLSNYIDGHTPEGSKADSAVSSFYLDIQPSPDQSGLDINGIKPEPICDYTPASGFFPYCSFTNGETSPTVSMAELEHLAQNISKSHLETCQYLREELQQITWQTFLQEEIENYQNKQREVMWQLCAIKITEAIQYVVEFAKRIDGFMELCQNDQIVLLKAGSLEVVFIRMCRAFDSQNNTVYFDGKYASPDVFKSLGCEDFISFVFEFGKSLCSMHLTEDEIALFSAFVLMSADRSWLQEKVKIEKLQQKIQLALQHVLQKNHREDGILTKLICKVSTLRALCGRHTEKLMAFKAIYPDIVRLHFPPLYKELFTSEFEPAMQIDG
The data set can be described thus: Inhibition of GAL4-fused RORalpha (unknown origin).

Data set [13] in a line: Clearance in cynomolgus monkey at 1 mg/kg, iv. The class given is ADME, organism-based, Macaca fascicularis. The following applies: in vivo.
A short description of data set [14]: Volume of distribution at steady state in rat at 2 mg/kg, iv. The class given is ADME, organism-based. The following applies: in vivo, read-out: Vdss.
The target in data set [15] is T3, Oxysterols receptor LXR-alpha (Homo sapiens, UniProt Q13133).
T3 sequence (Q13133 whole entry): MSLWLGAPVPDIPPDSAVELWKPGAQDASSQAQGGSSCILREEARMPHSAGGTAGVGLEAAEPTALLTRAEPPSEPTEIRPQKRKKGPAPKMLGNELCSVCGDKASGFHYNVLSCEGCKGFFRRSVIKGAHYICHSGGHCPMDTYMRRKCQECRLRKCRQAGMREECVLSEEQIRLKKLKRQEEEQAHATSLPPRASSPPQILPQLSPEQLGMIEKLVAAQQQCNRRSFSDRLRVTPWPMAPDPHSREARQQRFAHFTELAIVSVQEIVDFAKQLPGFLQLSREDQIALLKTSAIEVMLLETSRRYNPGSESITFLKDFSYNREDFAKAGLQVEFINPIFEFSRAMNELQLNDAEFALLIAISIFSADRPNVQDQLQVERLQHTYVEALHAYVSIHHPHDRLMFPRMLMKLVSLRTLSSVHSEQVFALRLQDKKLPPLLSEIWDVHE
Kind of data set: Inverse agonist activity of LXRalpha (unknown origin).

Data set [16] is described as follows: Metabolic stability in dog liver microsomes assessed as half life. Format: ADME, Canis lupus familiaris, Microsome. Background: Microsomes from liver hold many membrane-bound enzymes, among them those of drug oxidation.
Data set [17] in a line: Total AUC in BALB/c mouse at 2 mg/kg, iv. The following applies: in vivo. Also on record: route intravenous, time AUCmax, dose 2 mg/kg. The class given is ADME, organism-based.
Data set [18] can be described thus: Metabolic stability in cynomolgous monkey liver microsomes assessed as half life. The class given is ADME, Macaca fascicularis, Microsome. The following applies: cynomolgus monkey.
Data set [19] can be described thus: Volume of distribution at steady state in BALB/c mouse at 2 mg/kg, iv. Format: ADME, organism-based. The following applies: in vivo, read-out: Vdss.
Data set [20] is described as follows: Metabolic stability in rat liver microsomes assessed as half life. The class given is ADME, Microsome.
The nature of data set [21]: Metabolic stability in mouse liver microsomes assessed as half life. Format: ADME, Microsome.

One may read the Cmax as the maximum level reached in the sampled fluid or tissue. As a reminder, the clearance is a measure of how efficiently the substance is removed, as volume per time. As a reminder, the AUC is concentration integrated over time. As usually defined, the bioavailability is dose-corrected exposure relative to a reference, in per cent. As usually defined, the EC50 is the concentration giving half of the maximal effect. Broadly, the half-life is the time needed for the level to fall by half in the phase considered. The term IC50 denotes the concentration needed to halve the response being measured.

With `C[C@H]1C[C@H](C(=O)O)CC[C@H]1C(=O)N1CC[C@@]2(S(=O)(=O)c3ccccc3)c3cc(F)c(C(F)(C(F)(F)F)C(F)(F)F)cc3CC[C@@H]12`, the Cmax in data set [1] was 3.9 µM; in data set [6], 3.8 µM. Besides, the clearance in data set [2] came to 2.5 mL/min/kg; in data set [13] it was 1.1 mL/min/kg. In addition, the AUC is 23 µM·h in [3], 55 µM·h in [9], 39 µM·h in data set [10] and 20 µM·h in data set [17]. The bioavailability in data set [4] turned out to be 100%; in data set [7] it was 98%. The values for the EC50 in data set [5], in data set [12] and in data set [15] were 0.002 µM, more than 10 µM and more than 12 µM, respectively. Moreover, the half-life is 27 h in data set [8]; more than 2 h in [16]; more than 2 h in [18]; more than 2 h in [20]; more than 2 h in [21]. The IC50 in data set [11] was more than 20 µM. Besides, the Vd was 1.3 L/kg in [14] and 1.6 L/kg in data set [19].

For the origin of these results see ChEMBL document CHEMBL4699477, “Tricyclic sulfones as potent, selective and efficacious RORγt inverse agonists - Exploring C6 and C8 SAR using late-stage functionalization” (Bioorg Med Chem Lett, 2020).
